Data published in article PMC9844952 (Molecular Imaging and Biology, 2023).
Values belong to the compound of their own block, whether it stands above or below them.

Tests used:
[1] = doxorubicin-induced chronic cardiotoxicity model; type: in vivo, C57BL/6J mice; settings: 8x3 mg/kg ip over 2 weeks
[2] = system: NCI-H460 Fluc tumours; experiment: PET of NCI-H460 Fluc tumours on chick CAM; type: in vivo, chicken; settings: for tumour uptake in CAM tumours: 60 min p.i.
[3] = system: NCI-H460 Fluc tumours; type: in vivo, mice; settings: 60 min p.i.
[4] = system: S. aureus; experiment: in vitro binding to S. aureus
[5] = target: norepinephrine transporter (NET) (Homo sapiens, UniProt P23975); experiment: competitive 3H-NE uptake assay in SK-N-SH cells; type: cell-based; settings: read-out: IC50 of 3H-NE uptake; 60 min at 37°C, with pyrogallol and pargyline
norepinephrine transporter (NET), sequence (P23975 whole entry): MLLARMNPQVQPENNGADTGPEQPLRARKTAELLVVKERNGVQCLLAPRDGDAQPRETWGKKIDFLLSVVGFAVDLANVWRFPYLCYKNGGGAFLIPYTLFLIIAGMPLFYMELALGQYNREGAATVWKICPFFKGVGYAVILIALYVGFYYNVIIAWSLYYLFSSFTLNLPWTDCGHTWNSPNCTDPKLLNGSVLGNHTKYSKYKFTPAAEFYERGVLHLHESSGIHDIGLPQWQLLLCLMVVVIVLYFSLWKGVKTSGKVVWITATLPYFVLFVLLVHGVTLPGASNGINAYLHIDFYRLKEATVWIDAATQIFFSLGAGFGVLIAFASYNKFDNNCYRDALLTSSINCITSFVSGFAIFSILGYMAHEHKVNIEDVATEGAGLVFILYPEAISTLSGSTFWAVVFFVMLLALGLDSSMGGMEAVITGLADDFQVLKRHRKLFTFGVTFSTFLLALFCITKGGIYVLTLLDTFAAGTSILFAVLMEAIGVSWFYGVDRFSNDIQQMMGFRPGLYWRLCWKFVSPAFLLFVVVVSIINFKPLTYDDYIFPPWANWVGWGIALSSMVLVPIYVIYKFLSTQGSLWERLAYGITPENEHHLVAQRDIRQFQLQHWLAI

[6] = LogP of [99mTc]-DTPA-Collagen
[7] = system: Candida albicans 14053; experiment: in vitro tracer uptake, yeast control
[8] = in vitro stability of [99mTc]-DTPA-Collagen; settings: 50h post-incubation, Radio-TLC
[9] = system: Escherichia coli 25922; experiment: in vitro tracer uptake, Gram-negative control
[10] = system: Gram-positive bacteria; experiment: in vitro tracer uptake, Gram-positive bacteria
[11] = blood half-life and biodistribution of [99mTc]-DTPA-Collagen
[12] = cited from earlier work
[13] = target: human mGlu2 receptors (Homo sapiens, UniProt Q14416); experiment: radioligand binding in transfected CHO-K1 cells; settings: glutamate 10 μM
human mGlu2 receptors, sequence (Q14416 19-872): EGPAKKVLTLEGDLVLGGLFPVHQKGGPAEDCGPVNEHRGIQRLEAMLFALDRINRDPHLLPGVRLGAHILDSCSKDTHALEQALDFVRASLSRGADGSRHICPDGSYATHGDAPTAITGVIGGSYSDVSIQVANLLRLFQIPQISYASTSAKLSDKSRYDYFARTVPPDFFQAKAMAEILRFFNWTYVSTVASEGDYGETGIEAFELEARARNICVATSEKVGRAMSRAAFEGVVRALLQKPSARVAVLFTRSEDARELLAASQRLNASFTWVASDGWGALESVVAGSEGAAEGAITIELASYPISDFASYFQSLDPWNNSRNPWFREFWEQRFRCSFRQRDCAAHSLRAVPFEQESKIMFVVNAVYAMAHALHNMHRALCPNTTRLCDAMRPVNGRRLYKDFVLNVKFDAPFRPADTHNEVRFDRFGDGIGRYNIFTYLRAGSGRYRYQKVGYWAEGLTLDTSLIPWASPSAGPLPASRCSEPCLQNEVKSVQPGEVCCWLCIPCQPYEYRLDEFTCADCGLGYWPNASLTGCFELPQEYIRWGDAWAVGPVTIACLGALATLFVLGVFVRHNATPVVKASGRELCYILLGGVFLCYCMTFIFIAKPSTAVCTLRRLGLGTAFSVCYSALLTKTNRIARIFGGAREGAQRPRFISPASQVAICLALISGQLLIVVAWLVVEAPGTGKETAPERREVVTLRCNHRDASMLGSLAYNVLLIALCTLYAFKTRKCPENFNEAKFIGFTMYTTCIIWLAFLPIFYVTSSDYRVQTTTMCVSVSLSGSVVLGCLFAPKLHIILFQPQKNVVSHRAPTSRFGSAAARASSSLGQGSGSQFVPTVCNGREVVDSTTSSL

[14] = system: mGluR2; experiment: [11C]mG2P001 PET/CT in monkeys; type: in vivo, Cynomolgus fascicularis

Compound: COc1cccc2c1C(=O)c1c(O)c3c(c(O)c1C2=O)C[C@@](O)(C(=O)CO)C[C@@H]3O[C@H]1C[C@H](N)[C@H](O)[C@H](C)O1 [doxorubicin]
overall mortality rate [1]: < 20%

Compound: N=C(N)NCc1cccc(I)c1 [MIBG, meta-iodobenzylguanidine]
IC50 [5]: 1750 ± 470 nM

Compound: N[C@@H](C[C@H](CCC[18F])C(=O)O)C(=O)O [[18F]FSPG]
tumour uptake in CAM tumours [2]: 14.0 ± 5.5 %ID/g | stable in human plasma [12]: up to 4 hours

Continued, in another order:

tumour uptake in CAM tumours [2]: 10.0 ± 2.1 %ID/g | tumour-to-albumin ratio ([2]; i.v. ~3 MBq): 14.7 | tumour uptake in mice [3]: 6.0 ± 1.4 %ID/g | binding to S. aureus [4]: 21±1%
Compound: O=C[C@H]([18F])[C@@H](O)[C@H](O)[C@H](O)CO [[18F]FDG, 18-fluorodeoxyglucose]

binding to S. aureus [4]: 66±3%
Compound: [99mTc]-DTPA-Collagen: Rat Tail Collagen I conjugated to DTPA and labeled with 99mTc
LogP [6]: -3.69±0.58 | in vitro uptake [7]: 12±3% | stability [8]: higher than 90% | in vitro uptake [9]: 9±2% | in vitro uptake [10]: 63±7% | blood circulation half-life ([11]; blood extraction): 19 ± 2 min | liver uptake, ex vivo ([11]; rat, in vivo): 6.1±2.8 %ID/g | spleen uptake, ex vivo ([11]; rat, in vivo): 2.1±0.2 %ID/g

maximum enhancement of specific binding vs control [13]: 2 fold | SUVmax in brain ([14]; at 15 min): > 3
Compound: Cn1c(CN2CCC(c3ccc(C(F)(F)F)cc3O[11CH3])CC2)nc2ncccc21 [[11C]mG2P001, 2-((4-(2-[^11C]methoxy-4-(trifluoromethyl)phenyl)piperidin-1-yl)methyl)-1-methyl-1H-imidazo[4,5-b]pyridine]
enhancement of accumulation (Logan VT) ([14]; representative study, pretreatment with 0.6 mg/kg mG2P001 iv): 33%
